# Like-named read-outs stand apart in the source and are kept apart here.
# Legend:
# [1] = tested on: vines; details: cited from earlier work
# [2] = tested on: tomato plants of the cultivar "Harzfeuer"; assay: Greenhouse test tomato under zinc deficiency: plant weight and plant height; assay type: in vivo; details: 0% Zn supply
# Method: (§1) Greenhouse experiments (Examples A and B) were carried out to evaluate the effect of fungicide applications on the growth and development of plants cultivated under Zn deficiency, in particular the effect of Propineb and Mancozeb on the growth and development of banana and tomato plants. Banana plants and tomato plants of the cultivar “Harzfeuer” were cultivated on rock wool at different zinc regimes, 100% and 0% zinc level, with and without Propineb or Mancozeb applications.
# (§2) Tomato on rock wool has been sowed and approximately after 3 weeks, the plants have been transferred to rock wool bags. After the specified intervals the plants have been treated either 2 times preventive or one time curative and have been fertilized with a modified Hoagland solution which contained 100% or 0% zinc and having the composition as given below. Propineb and Mancozeb were applied. The fertilization was carried out in combination with the irrigation, using a drip application system.
# Propineb has been applied through spray application of commercially available Antracol 70WG solution (conc. 0.15% Propineb). Mancozeb has been applied as commercially available Dithane NeoTec® 75WG (conc. 0.15% Mancozeb). Preventive treatments with Propineb or Mancozeb were carried out 27 days and 57 days (Treatment No. 3 and Treatment No. 5) after sowing. Curative applications of Propineb or Mancozeb were carried out 95 days (Treatment No. 4 and Treatment No. 6) after sowing according to the following regime:
# The effect of preventive and curative treatments of Propineb and Mancozeb on the growth and development of tomato plants was evaluated by measuring the plant weight and plant height. The assessment of Treatment No. 3 and Treatment No. 5 was carried out 95 days after sowing. The morphological assessment of Treatment No. 4 and Treatment No. 6 was carried out 132 days after sowing.
# [3] = tested on: banana plants; assay: Greenhouse test banana under zinc deficiency: leaf size and leaf weight; assay type: in vivo; details: 0% Zn supply
# Method: as §1
# as §2, with “Banana on” for “Tomato on”, “treated” for “treated either”, “curative with Propineb and/or” for “curative and”, “below.” for “below. Propineb and Mancozeb were applied.”
# (§3) Propineb has been applied through spray application of commercially available Antracol 70WG solution (conc. 0.15% Propineb). Preventive treatments with Propineb were carried out 34 days and 57 days (Treatment No. 3) after sowing. Curative application of Propineb was carried out 85 days (Treatment No. 4) after sowing according to the following regime:
# (§4) The effect of preventive and curative Propineb treatments on the growth and development of banana plants was evaluated by measuring the leaf size, leaf weight and the chlorophyll a fluorescence using a Handy PEA system. The assessment of Treatment No. 3 was carried out 101 days after sowing. The morphological assessment of Treatment No. 4 was carried out 121 days after sowing. The chlorophyll a fluorescence was measured 13 and 28 days after the curative application of Propineb.
# [4] = tested on: banana plants; assay: Greenhouse test banana under zinc deficiency: chlorophyll a fluorescence (Handy PEA); assay type: in vivo; details: 0% Zn supply, curative treatment
# Method: as §1
# as §2, with “Banana on” for “Tomato on”, “treated” for “treated either”, “curative with Propineb and/or” for “curative and”, “below.” for “below. Propineb and Mancozeb were applied.”
# as §3, §4
# Fv/Fm: Fv/Fm is a parameter widely used to indicate the maximum quantum efficiency of photosystem II(PSII) This parameter is widely considered to be a selective indication of plant photosynthetic performance with healthy samples typically achieving a maximum Fv/Fm value of approx. 0.85. Values lower than this will be observed if a sample has been exposed to some type of biotic or abiotic stress factor which has reduced the capacity for photo-chemical quenching of energy within PSII. Fv/Fm is presented as a ratio of variable fluorescence (Fv) over the maximum fluorescence value (Fm). The Performance Index is essentially an indicator of sample vitality. (See e.g. Advanced Techniques in Soil Microbiology, 2007, 11, 319-341; Applied Soil Ecology, 2000, 15, 169-182.)
# [5] = curative spray 95 days after sowing (conc. 0.15%), assessed 132 days after sowing
# [6] = preventive spray 27 and 57 days after sowing (conc. 0.15%), assessed 95 days after sowing
# [7] = curative spray 85 days after sowing (0.15% Propineb), assessed 121 days after sowing
# [8] = preventive spray 34 and 57 days after sowing (0.15% Propineb), assessed 101 days after sowing
# [9] = 1st measurement (13 days after curative application)
# [10] = 2nd measurement (28 days after curative application)
compound,measurement,setting,value
S=C(S)NCCNC(=S)S [Zineb],yield and growth compared to untreated vines,"[1]; vines, ISHS Acta Horticulturae 1987, 199, 157-161",significantly greater yield and growth
O=S(=O)([O-])[O-].[Zn+2] [zinc sulfate],yield and growth compared to untreated vines,[1]; in vivo,significantly greater yield and growth
Mancozeb,Plant weight,[2]; [5],409 g
same,Plant height,[2]; [6],64
same,Plant weight,[2]; [6],249 g
Propineb,Plant weight,[2]; [5],568 g
same,Plant height,[2]; [6],76
same,Plant weight,[2]; [6],341 g
same,Leaf size,[3]; [7],2101 ± 612 cm^2
same,Leaf weight,[3]; [7],90 g
same,Average leaf size,[3]; [8],2062 ± 284 cm^2
same,Average leaf weight,[3]; [8],76 g
same,Fv/Fm,[4]; [9],0.82
same,Performance index,[4]; [9],2.21
same,Fv/Fm,[4]; [10],0.83
same,Performance index,[4]; [10],2.69
